Earlier results as cited in PMC9475419 (RSC Advances, 2022).
Entries after “also recorded” stand apart in the source; their conditions may differ.

Key:
[1] = cited from earlier work
[2] = 15 Pep1 per AuNP (3.6 nm); cited from earlier work

Sequence: CGSTIYASYYESGHGC [Pep1]
- structure and function of free peptide [1]: unstructured and non-functional
- suppression of non-specific binding of AuNPs by Pep1 [2]: enough to suppress the non-specific binding surface of AuNPs; also recorded: could sufficiently suppress the non-specific binding of AuNPs
